A word on the GI50: it is the concentration that inhibits growth by half. One may read the TGI as the concentration at which net growth stops. A lower TGI goes with greater sensitivity of the cells.

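Compound exposure: 48 hours, 5 concentrations, 96-well plates. GI50: concentration for 50% inhibition of growth. TGI marks complete inhibition of growth.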 Bounds are passed on as bounds.

Among the test systems are MCF7 breast; HS 578T breast; BT-549 breast; T-47D breast; DU-145 prostate; MDA-MB-231 breast.
What all share (assay): DTP human tumour cell line panel, 48 h

In the case of `O=C1C2=C(C(=O)c3c(O)ccc(O)c31)N(c1ccc(N3CCOCC3)nc1)Cc1ccccc1O2`, the GI50 was 161 nM in the assay with MCF7 breast; 1520 nM in the assay with HS 578T breast; 0.249 µM with BT-549 breast; 205 nM with T-47D breast; 0.326 µM with DU-145 prostate; 0.243 µM in the assay on MDA-MB-231 breast. The TGI in the assay with MCF7 breast was 0.658 µM; in the assay on HS 578T breast it was above 55.4 µM; in the assay on BT-549 breast, 0.845 µM; in the assay with T-47D breast it was 0.9 µM; with DU-145 prostate, 1.03 µM; in the assay on MDA-MB-231 breast, 0.814 µM.

For `O=S(=O)(NCCNc1nccc(-c2c(-c3cccc(O)c3)nc3sccn23)n1)c1ccc(F)cc1`, the GI50 in the assay with MCF7 breast was 2390 nM; with HS 578T breast, 2930 nM; in the assay on BT-549 breast, 5.32 µM; with T-47D breast it was 6540 nM; in the assay with DU-145 prostate, 8.94 µM; in the assay with MDA-MB-231 breast, 4.88 µM. Also, the TGI in the assay with MCF7 breast worked out at 14.9 µM; in the assay on HS 578T breast it was 11.7 µM; in the assay with BT-549 breast, 30 µM; in the assay on T-47D breast, 25 µM; in the assay with DU-145 prostate, 38.7 µM; in the assay on MDA-MB-231 breast, 44.8 µM.

In the case of `CSC1=Nc2c(c(C)c(-c3ccccc3)n2COC(CO)CO)C2=NC(=O)C(C)N12` (configuration not stated), the GI50 was above 100000 nM in the assay with MCF7 breast; above 100000 nM in the assay on HS 578T breast; above 100 µM in the assay on BT-549 breast; above 100000 nM in the assay with T-47D breast; above 100 µM in the assay on DU-145 prostate; above 100 µM with MDA-MB-231 breast. For the same compound, the concentration for total growth inhibition (TGI) in the assay with MCF7 breast, in the assay on HS 578T breast, in the assay on BT-549 breast, in the assay on T-47D breast, with DU-145 prostate and with MDA-MB-231 breast was above 100 µM throughout.

With `C/C(CC(O)(C(F)(F)F)C(F)(F)F)=N\N`, the TGI in the assay with MCF7 breast, in the assay with HS 578T breast, with BT-549 breast, with T-47D breast, with DU-145 prostate and with MDA-MB-231 breast was above 10 µM each time.

With `CCN(CC)CCn1ncc2ccc3c(c(=O)c4cccnc4n3CCN(CC)CC)c21`, the TGI in the assay with MCF7 breast is 4.62 µM; in the assay with HS 578T breast, above 6 µM; in the assay on BT-549 breast, 5.11 µM; with T-47D breast, above 9.48 µM; in the assay with DU-145 prostate it was above 8.66 µM; in the assay on MDA-MB-231 breast, 4.07 µM.

As for `Cn1cc(-c2csc(-c3c[nH]c4ncccc34)n2)c2cc(Br)cnc21`, the GI50 in the assay on MCF7 breast is 6770 nM; with HS 578T breast, 2430 nM; with BT-549 breast it was 20.5 µM; in the assay with T-47D breast it was 1800 nM; with DU-145 prostate, 3.51 µM; with MDA-MB-231 breast it was 3.02 µM. Also, the total growth inhibition concentration (TGI) in the assay with MCF7 breast, in the assay with HS 578T breast, in the assay on BT-549 breast, in the assay on T-47D breast, in the assay with DU-145 prostate and in the assay on MDA-MB-231 breast was above 100 µM each time.

`CC/C(=N\Nc1nc2ccccc2n1C)c1ccccn1`: the GI50 in the assay with MCF7 breast is 17.9 nM; in the assay with HS 578T breast, 923 nM; in the assay on BT-549 breast, 0.243 µM; with T-47D breast it was below 10 nM; in the assay on DU-145 prostate, 0.127 µM; in the assay with MDA-MB-231 breast it was 0.14 µM. The total growth inhibition concentration (TGI) with MCF7 breast amounted to 13.9 µM; with HS 578T breast it was 12.7 µM; in the assay on BT-549 breast it was 12.8 µM; with T-47D breast, 4.59 µM; in the assay with DU-145 prostate, 12.7 µM; in the assay with MDA-MB-231 breast, 11.8 µM.

Take `CCN1CCC[C@H]1c1cc(O)c2c(c1OC)C[C@H]1C[C@H]3[C@H](N)C(=O)C(C(N)=O)=C(O)[C@@]3(O)C(=O)C1=C2O`: the GI50 in the assay with MCF7 breast was 241 nM; in the assay on HS 578T breast, 49.5 nM; in the assay with BT-549 breast, 0.0719 µM; with T-47D breast, 44.8 nM; in the assay on DU-145 prostate, 0.0664 µM; in the assay with MDA-MB-231 breast, 0.0431 µM. Also, the TGI in the assay with MCF7 breast was 6.1 µM; in the assay with HS 578T breast it was 1.12 µM; in the assay on BT-549 breast it was 1.28 µM; with T-47D breast, 1.47 µM; with DU-145 prostate it was 2.16 µM; with MDA-MB-231 breast, 0.717 µM.

With `Cc1cccc(CN(C)c2ccc(CO)c(Cl)c2)c1`, the GI50 in the assay with MCF7 breast is 1540 nM; in the assay on HS 578T breast it was 22500 nM; in the assay on BT-549 breast it was 15.8 µM; in the assay on T-47D breast, 1040 nM; in the assay with DU-145 prostate it was 30.8 µM; with MDA-MB-231 breast it was 21.9 µM. The TGI with MCF7 breast is 21.3 µM; in the assay on HS 578T breast, above 83.3 µM; in the assay on BT-549 breast, 42.9 µM; in the assay on T-47D breast, 7.66 µM; in the assay on DU-145 prostate it was above 100 µM; with MDA-MB-231 breast, above 86.2 µM.

Take `COc1cc2c(cc1OC)C(CCc1ccc(Cl)cc1)N(C)CC2` (configuration not stated): the GI50 with MCF7 breast is 21200 nM; in the assay on HS 578T breast it was 18300 nM; with BT-549 breast, 33.5 µM; in the assay on T-47D breast it was 23800 nM; with DU-145 prostate, 51.9 µM; in the assay on MDA-MB-231 breast, 16.3 µM. In addition, the total growth inhibition concentration (TGI) with MCF7 breast is 47 µM; in the assay on HS 578T breast it was 51.4 µM; in the assay with BT-549 breast, above 100 µM; in the assay with T-47D breast, 76.8 µM; with DU-145 prostate, above 100 µM; in the assay on MDA-MB-231 breast, 39.1 µM.

Regarding `O=C(CCCn1c2c(sc3ncccc32)c(=O)n2nnc(-c3ccccc3)c12)NCCc1cnc[nH]1`, the GI50 with MCF7 breast is 18000 nM; in the assay with HS 578T breast it was 11300 nM; in the assay on T-47D breast, 1870 nM; in the assay on DU-145 prostate, 2.77 µM; with MDA-MB-231 breast it was 17.8 µM. Besides, the concentration for total growth inhibition (TGI) in the assay on MCF7 breast is above 100 µM; in the assay on HS 578T breast it was 31.5 µM; with T-47D breast it was 21.6 µM; in the assay on DU-145 prostate, 19.7 µM; in the assay on MDA-MB-231 breast, 34.6 µM.

`Cc1cccc2c1Oc1cc(Cl)ccc1C2NC(=O)CCN1CCCCC1` (configuration not stated): the total growth inhibition concentration (TGI) with MCF7 breast was 33.6 µM; in the assay with BT-549 breast it was 33.4 µM; in the assay with T-47D breast it was 29.8 µM; in the assay on MDA-MB-231 breast, 39 µM.

Turning to `O=C(Nc1cccc(Cl)c1)Nc1cccc(Cl)c1`, the GI50 in the assay with MCF7 breast was 5790 nM; with HS 578T breast, above 100000 nM; with BT-549 breast, above 100 µM; in the assay with T-47D breast it was 2280 nM; with MDA-MB-231 breast, 18.2 µM. The TGI with MCF7 breast, in the assay with HS 578T breast, in the assay with BT-549 breast, in the assay with T-47D breast and with MDA-MB-231 breast was above 100 µM throughout.

Regarding `OC(c1cc(C(O)(C(F)(F)F)C(F)(F)F)ncn1)(C(F)(F)F)C(F)(F)F`, the total growth inhibition concentration (TGI) with MCF7 breast, in the assay with HS 578T breast, with T-47D breast, with DU-145 prostate and in the assay on MDA-MB-231 breast was above 10 µM each time.

These data come from PubChem BioAssay (NCI).
